PubChem BioAssay (NCI)
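Test compounds were applied to cells in 96-well plates for 48 hours at 5 doses. TGI: concentration producing complete growth inhibition.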

Experiments:
Experiment in all cases: NCI tumour cell line growth inhibition, 48 h
M19-MEL melanoma = test system: M19-MEL melanoma
OVCAR-5 ovarian = test system: OVCAR-5 ovarian
786-0 renal = test system: 786-0 renal
U251 CNS = test system: U251 CNS
MALME-3M melanoma = test system: MALME-3M melanoma
OVCAR-8 ovarian = test system: OVCAR-8 ovarian
HL-60(TB) leukemia = test system: HL-60(TB) leukemia
LXFL 529 NSCLC = test system: LXFL 529 NSCLC
SF-295 CNS = test system: SF-295 CNS
DMS 114 small cell lung = test system: DMS 114 small cell lung
A549 NSCLC = test system: A549 NSCLC
HCT-15 colon = test system: HCT-15 colon
NCI-H23 lung = test system: NCI-H23 lung
SNB-75 CNS = test system: SNB-75 CNS
HOP-62 NSCLC = test system: HOP-62 NSCLC
TK-10 renal = test system: TK-10 renal
SK-MEL-5 melanoma = test system: SK-MEL-5 melanoma
OVCAR-4 ovarian = test system: OVCAR-4 ovarian
COLO 205 colon = test system: COLO 205 colon
CCRF-CEM leukemia = test system: CCRF-CEM leukemia
MOLT-4 leukemia = test system: MOLT-4 leukemia
HT29 colon = test system: HT29 colon
HCC-2998 colon = test system: HCC-2998 colon
SW-620 colon = test system: SW-620 colon
SK-MEL-28 melanoma = test system: SK-MEL-28 melanoma
A498 renal = test system: A498 renal
SN12C renal = test system: SN12C renal
DLD-1 colon = test system: DLD-1 colon
RXF 393 renal = test system: RXF 393 renal
SNB-19 CNS = test system: SNB-19 CNS
UO-31 renal = test system: UO-31 renal
RPMI-8226 leukemia = test system: RPMI-8226 leukemia
M14 melanoma = test system: M14 melanoma
HCT-116 colon = test system: HCT-116 colon
HOP-18 NSCLC = test system: HOP-18 NSCLC
OVCAR-3 ovarian = test system: OVCAR-3 ovarian
KM12 colon = test system: KM12 colon
LOX IMVI melanoma = test system: LOX IMVI melanoma
SF-268 CNS = test system: SF-268 CNS
NCI-H460 lung = test system: NCI-H460 lung
HOP-92 NSCLC = test system: HOP-92 NSCLC
UACC-62 melanoma = test system: UACC-62 melanoma
ACHN renal = test system: ACHN renal
NCI-H522 lung = test system: NCI-H522 lung
K-562 leukemia = test system: K-562 leukemia
SR leukemia = test system: SR leukemia
SK-OV-3 ovarian = test system: SK-OV-3 ovarian
DMS 273 small cell lung = test system: DMS 273 small cell lung
IGROV1 ovarian = test system: IGROV1 ovarian
CAKI-1 renal = test system: CAKI-1 renal
SF-539 CNS = test system: SF-539 CNS
XF 498 CNS = test system: XF 498 CNS
KM20L2 colon = test system: KM20L2 colon
SK-MEL-2 melanoma = test system: SK-MEL-2 melanoma
UACC-257 melanoma = test system: UACC-257 melanoma
NCI-H226 lung = test system: NCI-H226 lung
EKVX NSCLC = test system: EKVX NSCLC
SNB-78 CNS = test system: SNB-78 CNS

For `O=[N+]([O-])c1ccc(N2N=C(c3ccc(NCc4nc5ccccc5[nH]4)cc3)CC2c2ccco2)cc1` (stereo not given), the TGI (M19-MEL melanoma) was over 100 µM, the TGI (OVCAR-5 ovarian) was over 100 µM and the TGI (786-0 renal) was over 100 µM. For the same compound, the TGI (U251 CNS) was over 100 µM, the TGI (MALME-3M melanoma) was 66.4 µM and the TGI (OVCAR-8 ovarian) was 57.7 µM. It also gave a TGI (HL-60(TB) leukemia) of 48.9 µM, a TGI (LXFL 529 NSCLC) of 38.5 µM and a TGI (SF-295 CNS) of 74.7 µM. The TGI (DMS 114 small cell lung) was 50.9 µM, the TGI (A549 NSCLC) was over 100 µM and the TGI (HCT-15 colon) was 84.9 µM. The TGI (NCI-H23 lung) was 55.9 µM, the TGI (SNB-75 CNS) was over 100 µM and the TGI (HOP-62 NSCLC) was over 100 µM. The TGI (TK-10 renal) was over 100 µM, the TGI (SK-MEL-5 melanoma) was 31.9 µM and the TGI (OVCAR-4 ovarian) was 64.8 µM. For the same compound, the TGI (COLO 205 colon) was 77.9 µM, the TGI (CCRF-CEM leukemia) was over 100 µM and the TGI (MOLT-4 leukemia) was 31.3 µM. The TGI (HT29 colon) was 90.6 µM, the TGI (HCC-2998 colon) was 94.1 µM and the TGI (SW-620 colon) was over 100 µM. The TGI (SK-MEL-28 melanoma) was over 100 µM, the TGI (A498 renal) was over 100 µM and the TGI (SN12C renal) was 61.9 µM. For the same compound, the TGI (DLD-1 colon) was over 100 µM, the TGI (RXF 393 renal) was over 100 µM and the TGI (SNB-19 CNS) was over 100 µM. It also gave a TGI (UO-31 renal) of 55.4 µM, a TGI (RPMI-8226 leukemia) of 94.5 µM and a TGI (M14 melanoma) of 61.3 µM. For the same compound, the TGI (HCT-116 colon) was 57.3 µM, the TGI (HOP-18 NSCLC) was over 100 µM and the TGI (OVCAR-3 ovarian) was 80.2 µM. For the same compound, the TGI (KM12 colon) was 41.4 µM, the TGI (LOX IMVI melanoma) was 41.6 µM and the TGI (SF-268 CNS) was over 100 µM. The TGI (NCI-H460 lung) was over 100 µM, the TGI (HOP-92 NSCLC) was over 100 µM and the TGI (UACC-62 melanoma) was 69.3 µM. It also gave a TGI (ACHN renal) of over 100 µM, a TGI (NCI-H522 lung) of 54 µM and a TGI (K-562 leukemia) of over 100 µM. For the same compound, the TGI (SR leukemia) was 33.8 µM, the TGI (SK-OV-3 ovarian) was over 100 µM and the TGI (DMS 273 small cell lung) was 51.8 µM. The TGI (IGROV1 ovarian) was over 100 µM, the TGI (CAKI-1 renal) was over 100 µM and the TGI (SF-539 CNS) was 84.4 µM.

For `Cc1ccc(NC(=O)CSc2nnc(-c3ccc(N=Cc4ccc(Cl)cc4)cc3)o2)cc1`, the TGI (M19-MEL melanoma) was over 100 µM, the TGI (786-0 renal) was over 100 µM and the TGI (U251 CNS) was over 100 µM. For the same compound, the TGI (XF 498 CNS) was over 100 µM, the TGI (MALME-3M melanoma) was over 100 µM and the TGI (OVCAR-8 ovarian) was over 100 µM. The TGI (HL-60(TB) leukemia) was over 100 µM, the TGI (LXFL 529 NSCLC) was over 100 µM and the TGI (SF-295 CNS) was over 100 µM. It also gave a TGI (KM20L2 colon) of over 100 µM, a TGI (SK-MEL-2 melanoma) of over 100 µM and a TGI (DMS 114 small cell lung) of over 100 µM. It also gave a TGI (A549 NSCLC) of over 100 µM, a TGI (UACC-257 melanoma) of over 100 µM and a TGI (HCT-15 colon) of over 100 µM. For the same compound, the TGI (NCI-H226 lung) was over 100 µM, the TGI (NCI-H23 lung) was over 100 µM and the TGI (SNB-75 CNS) was over 100 µM. For the same compound, the TGI (HOP-62 NSCLC) was over 100 µM, the TGI (TK-10 renal) was over 100 µM and the TGI (SK-MEL-5 melanoma) was over 100 µM. The TGI (OVCAR-4 ovarian) was over 100 µM, the TGI (COLO 205 colon) was over 100 µM and the TGI (CCRF-CEM leukemia) was over 100 µM. It also gave a TGI (MOLT-4 leukemia) of over 100 µM, a TGI (HT29 colon) of over 100 µM and a TGI (SW-620 colon) of over 100 µM. It also gave a TGI (SK-MEL-28 melanoma) of over 100 µM, a TGI (SN12C renal) of over 100 µM and a TGI (RXF 393 renal) of over 100 µM. The TGI (SNB-19 CNS) was over 100 µM, the TGI (EKVX NSCLC) was over 100 µM and the TGI (UO-31 renal) was over 100 µM. For the same compound, the TGI (SNB-78 CNS) was over 100 µM, the TGI (RPMI-8226 leukemia) was over 100 µM and the TGI (M14 melanoma) was over 100 µM. It also gave a TGI (HCT-116 colon) of over 100 µM, a TGI (HOP-18 NSCLC) of over 100 µM and a TGI (KM12 colon) of over 100 µM. For the same compound, the TGI (LOX IMVI melanoma) was over 100 µM, the TGI (SF-268 CNS) was over 100 µM and the TGI (NCI-H460 lung) was over 100 µM. For the same compound, the TGI (UACC-62 melanoma) was over 100 µM, the TGI (ACHN renal) was over 100 µM and the TGI (NCI-H522 lung) was over 100 µM. For the same compound, the TGI (K-562 leukemia) was over 100 µM, the TGI (SR leukemia) was over 100 µM and the TGI (SK-OV-3 ovarian) was over 100 µM. The TGI (DMS 273 small cell lung) was over 100 µM.
